Reference: patent US5801180A, “Quinazoline derivatives” (priority 1991, dated 1998)

Molecular target: T1, cGMP-PDE prepared from the swine aeorta (Sus scrofa, UniProt A0A287B475)
T1 construct: The swine aeorta was sliced; from tissue; host or cells: swine aorta, 100000×g supernatant, DEAE-Toyopearl 650S fraction
Experiment: Enzyme inhibiting action with the use of cGMP-PDE prepared from the swine aorta
Format: biochemical
Settings: CaM-independent cGMP-PDE, 1 mM EGTA, 1 μM cGMP substrate, DMSO 4% or below
Method: Enzyme inhibiting action with the use of cGMP-PDE prepared from the swine aeorta
The enzymatic activity of the cGMP-PDE prepared from the swine aeorta was determined according to the method of Thompson et al. ^(1). The enzymatic activity thereof was determined in the presence of 1 mM EGTA by the use of 1 μM cGMP as a substrate. The compound of the present invention was dissolved in DMSO, added to the reaction liquid and examined for the inhibitory activity. The final concentration of DMSO in the reaction liquid was adjusted to 4% or below. (1) Thompson, W. J. and Strada, S. J., Cyclic Nucleotide Phosphodiesterase (PDE), in Methods of Enzymatic Analysis, vol 4, p.127-234, 1984.
The swine aeorta was sliced, followed by the addition of 10 times by volume as much Buffer A (20 mM Tris/HCl, 2 mM Mg acetate, 1 mM Dithiothreitol, 5 mM EDTA, 1400 TIU/liter aprotinin, 10 mg/liter leupeptin, 1 mM benzamidine, 0.2 mM PMSF, pH 7.5). The obtained mixture was homogenized and the homogenate was centrifuged at 100000×g for one hour. The obtained supernatant was supplied a DEAE-Toyopearl 650S (Tosoh, Tokyo, Japan) column. After the column was washed with Buffer B (50 mM Tris/HCl, 0.1 mM EGTA, 2 mM Mg acetate, 1 mM Dithiothreitol, 0.2 mM PMSF, pH 7.5), gradient elution with 0.05 to 0.4M NaCl was conducted. Thus, CaM-independent cGMP-PDE fractions were obtained.

Q: For `N#Cc1ccc2nc(N3CCC(C(=O)O)CC3)nc(NCc3ccc4nc[nH]c4c3)c2c1` [Example 244, 2-(4-Carboxypiperidino)-4-(benzimidazol-5-yl)methylamino-6-cyanoquinazoline], which IC50 is on record?
A: 9 nM

Q: `COc1cc2c(NCc3ccc4c(c3)OCO4)nc(/C=C(/C)C(=O)O)nc2c(OC)c1OC` [Example 128, (Z)-2-(2-Carboxy-1-propenyl)-4-(3,4-methylenedioxybenzyl)amino-6,7,8-trimethoxyquinazoline] was tested. Which IC50 did it give?
A: 300 nM

Q: For `OCCN(CCO)c1nc(NCc2ccc3c(c2)OCO3)c2cc(Cl)ccc2n1` [Example 191, 2-Bis(2-hydroxyethyl)amino-4-(3,4-methylenedioxybenzyl)amino-6-chloroquinazoline], which IC50 is on record?
A: 19 nM

Q: `O=C(O)C1CCN(c2nc3ccc(Cl)cc3n2Cc2ccc3c(c2)OCO3)CC1` [Example 280, 2-(4-Carboxypiperidino)-6-chloro-1-(3,4-methylenedioxybenzyl)benzimidazole] was tested. Which IC50 did it give?
A: 250 nM

Q: Which IC50 does the source give for `NC(=O)c1ccc2nc(N3CCC(C(=O)O)CC3)nc(NCc3ccc4c(c3)OCO4)c2c1` [Example 245, 2-(4-Carboxypiperidino)-4-(3,4-methylenedioxybenzyl)amino-6-carbamoylquinazoline] here?
A: 100 nM

Q: `N#Cc1ccc2nc(-n3ccnc3)nc(NCc3ccc4c(c3)OCO4)c2c1` [Example 193, 2-(Imidazol-1-yl)-4-(3,4-methylenedioxybenzyl)amino-6-cyanoquinazoline] was tested. Which IC50 did it give?
A: 0.8 nM

Q: `COc1ccc2nc(CO)nc(NCc3ccc4c(c3)OCO4)c2c1` [Example 139, 2-Hydroxymethyl-4-(3,4-methylenedioxybenzyl)amino-6-methoxyquinazoline] was tested. Which IC50 did it give?
A: 21 nM

Q: How did the IC50 turn out when `CCOC(=O)C1CCN(c2nc(NCc3ccc(OC)c(Cl)c3)c3cc(C#N)ccc3n2)CC1` [Example 208, 2-(4-Ethoxycarbonylpiperidino)-4-(3-chloro-4-methoxybenzyl)amino-6-cyanoquinazoline] was run?
A: 0.19 nM

Q: Which IC50 does the source give for `Clc1ccc2nc(Cl)nc(NCc3ccc4c(c3)OCO4)c2c1` [Example 92, 2,6-Dichloro-4-(3,4-methylenedioxybenzyl)aminoquinazoline] here?
A: 94 nM

Q: How did the IC50 turn out when `OCCCCOc1nc(NCc2ccc3c(c2)OCO3)c2cc(Cl)ccc2n1` [Example 174, 2-(4-Hydroxybutoxy)-4-(3,4-methylenedioxybenzyl)amino-6-chloroquinazoline] was run?
A: 4 nM

Q: `O=C(O)C1CCN(c2nc(NCc3ccc4c(c3)OCO4)c3cc(Br)ccc3n2)CC1` [Example 376] was tested. Which IC50 did it give?
A: 21 nM

Q: `CCCCNC(=O)Nc1nc(NCc2ccc3c(c2)OCO3)c2cc(Cl)ccc2n1` [Example 204, 2-(n-Butylcarbamoyl)amino-4-(3,4-methylenedioxybenzyl)amino-6-chloroquinazoline] was tested. Which IC50 did it give?
A: 4 nM

Q: For `COc1ccc2nc(N3CCC(C(=O)O)CC3)nc(NCc3ccc(OC)c(Cl)c3)c2c1` [Example 234, 2-(4-Carboxypiperidino)-4-(3-chloro-4-mehtoxybenzyl)amino-6-methoxyquinazoline], which IC50 is on record?
A: 6 nM

Q: With `COc1cc2c(NCc3ccc4c(c3)OCO4)nc(Cl)nc2c(OC)c1OC` [Example 95, 2-Chloro-4-(3,4-methylenedioxybenzyl)amino-6,7,8-trimethoxyquinazoline] as the molecule, how does the IC50 read?
A: 200 nM

Q: With `CCOC(=O)/C(C)=C/c1nc(NCc2ccc3c(c2)OCO3)c2cc(Cl)ccc2n1` [Example 112, (E)-2-(2-Ethoxycarbonyl-1-propenyl)-4-(3,4-methylenedioxybenzyl)amino-6-chloroquinazoline] as the molecule, how does the IC50 read?
A: 2 nM

Q: How did the IC50 turn out when `COc1ccc(CNc2nc(N(C)CCCC(=O)O)nc3ccc(C#N)cc23)cc1Cl` [Example 243, 2-[N-(3-Carboxypropyl)-N-methylamino]-4-(3-chloro-4-methoxybenzyl)amino-6-cyanoquinazoline] was run?
A: 0.15 nM

Q: `CSc1ccc2ncnc(N(CCO)Cc3ccc4c(c3)OCO4)c2c1` [Example 54, 4-[N-(2-Hydroxyethyl)-(3,4-methylenedioxybenzyl)amino]-6-methylthioquinazoline] was tested. Which IC50 did it give?
A: 470 nM

Q: With `NC(=O)c1ccc2ncnc(NCc3ccc4c(c3)OCO4)c2c1` [Example 133, 4-(3,4-Methylenedioxybenzyl)amino-6-carbamoylquinazoline] as the molecule, how does the IC50 read?
A: 770 nM

Q: For `COc1ccc2nc(OC)nc(NCc3ccc4c(c3)OCO4)c2c1` [Example 89, 2,6-Dimethoxy-4-(3,4-methylenedioxybenzyl)aminoquinazoline], which IC50 is on record?
A: 160 nM

Q: How did the IC50 turn out when `COc1cc2c(NCc3ccc4c(c3)OCO4)nc(C)nc2c(OC)c1OC` [Example 81, 2-Methyl-4-(3,4-methylenedioxybenzyl)amino-6,7,8-trimethoxyquinazoline] was run?
A: 440 nM

Q: For `OCC1CCCN1c1nc(NCc2ccc3c(c2)OCO3)c2cc(Cl)ccc2n1` (stereo not shown) [Example 190, 2-(9-Hydroxymethylpyrrolidin-1-yl)-4-(3,4-methylenedioxyybenzyl)amino-6-chloroquinazoline], which IC50 is on record?
A: 5 nM

Q: With `COc1cc2c(N(CCO)Cc3ccc4c(c3)OCO4)nc(Cl)nc2c(OC)c1OC` [Example 105, 2-Chloro-4-[N-(2-hydroxyethyl)-(3,4-methylenedioxybenzyl)amino]-6,7,8-trimethoxyquinazoline] as the molecule, how does the IC50 read?
A: 180 nM

Q: `N#Cc1ccc2nc(N3CCC(C(=O)O)CC3)nc(NCc3ccc4c(c3)OCO4)c2c1` [Example 227, 2-(4-Carboxypiperidino)-4-(3,4-methylenedioxybenzyl)amino-6-cyanoquinazoline] was tested. Which IC50 did it give?
A: 2.6 nM

Q: How did the IC50 turn out when `CNC(=O)Nc1nc(NCc2ccc3c(c2)OCO3)c2cc(Cl)ccc2n1` [Example 202, 2-(Methylcarbamoyl)amino-4-(3,4-methylenedioxybenzyl)amino-6-chloroquinazoline] was run?
A: 2 nM

Q: For `CCOC(=O)CNc1nc(NCc2ccc3c(c2)OCO3)c2cc(Cl)ccc2n1` [Example 213, 2-(Ethoxycarbonylmethyl)amino-4-(3,4-methylenendioxybenzyl)amino-6-chloroquinazoline], which IC50 is on record?
A: 23 nM

Q: How did the IC50 turn out when `CCCOc1nc(NCc2ccc3c(c2)OCO3)c2cc(OC)c(OC)c(OC)c2n1` [Example 172, 2-Propoxy-4-(3,4-methylenedioxybenzyl)amino-6,7,8-trimethoxyquinazoline] was run?
A: 95 nM

Q: `CSc1nc(NCc2ccc3c(c2)OCO3)c2cc(Cl)ccc2n1` [Example 180, 2-Methylthio-4-(3,4-methylenedioxybenzyl)amino-6-chloroquinazoline] was tested. Which IC50 did it give?
A: 9 nM

Q: For `COc1ccc(CNc2ncnc3c(OC)c(OC)c(OC)cc23)cc1F` [Example 22, 4-(3-Fluoro-4-methoxybenzyl)amino-6,7,8-trimethoxyquinazoline], which IC50 is on record?
A: 360 nM

Q: How did the IC50 turn out when `OCCOc1nc(NCc2ccc3c(c2)OCO3)c2cc(Cl)ccc2n1` [Example 168] was run?
A: 11 nM

Q: `CCOC(=O)CN(Cc1ccc2c(c1)OCO2)c1ncnc2c(OC)c(OC)c(OC)cc12` [Example 41, 4-[N-(Ethoxycarbonylmethyl)-(3,4-methylenedioxybenzyl)amino]-6,7,8-trimethoxyquinazoline] was tested. Which IC50 did it give?
A: 350 nM

Q: `COC1Cc2cc(CNc3ncnc4ccc(Cl)cc34)ccc2O1` (stereo not shown) [Example 61, 4-(2-Methoxy-2,3-dihydrobenzofuran-5-yl)methylamino6-chloroquinazoline] was tested. Which IC50 did it give?
A: 420 nM

Q: With `COc1ccc(CNc2nc(/C=C/C(=O)O)nc3ccc(Cl)cc23)cc1Cl` [Example 124, (E)-2-(2-carboxyvinyl)-4-(3-chloro-4-methoxybenzyl)amino-6-chloroquinazoline] as the molecule, how does the IC50 read?
A: 8 nM

Q: Which IC50 does the source give for `Clc1ccc2nc(-n3ccnc3)n(Cc3ccc4c(c3)OCO4)c2c1` [Example 278, 6-Chloro-2-(imidazol-1-yl)-1-(3,4-methylenedioxybenzyl)benzimidazole] here?
A: 250 nM

Q: With `COCCOc1nc(NCc2ccc3c(c2)OCO3)c2cc(Cl)ccc2n1` [Example 164, 2-(2-Methoxyethoxy)-4-(3,4-methylenedioxybenzyl)amino-6-chloroquinazoline] as the molecule, how does the IC50 read?
A: 8 nM

Q: Which IC50 does the source give for `COc1cc(OC)c2ncnc(NCc3ccc4c(c3)OCO4)c2c1` [Example 71, 4-(3,4-Methylenedioxybenzyl)amino-6,8-dimethoxyquinazoline] here?
A: 810 nM

Q: `COc1ccc(CNc2cc(N3CCC(C(=O)O)CC3)nc3ccc(C#N)cc23)cc1Cl` [Example 260, 2-(4-Carboxypiperidino)-4-(3-chloro-4-methoxybenzyl)amino-6-cyanoquinoline] was tested. Which IC50 did it give?
A: 0.16 nM

Q: For `O=C(O)CCCNc1nc(NCc2ccc3c(c2)OCO3)c2cc(Cl)ccc2n1` [Example 238, 2-(3-Carboxypropyl)amino-4-(3,4-methylenedioxybenzyl)amino-6-chloroquinazoline], which IC50 is on record?
A: 5 nM

Q: For `N#Cc1ccc2nc(OCCCC(=O)O)nc(NCc3ccc4c(c3)OCO4)c2c1` [Example 179, 2-(3-Carboxypropyl)oxy-4-(3,4-methylenedioxybenzyl)amino-6-cyanoquinazoline], which IC50 is on record?
A: 2 nM

Q: For `COc1cc2c(NCc3ccc(Cl)c(Cl)c3)ncnc2c(OC)c1OC` [Example 19, 4-(3,4-Dichlorobenzyl)amino-6,7,8-trimethoxyquinazoline], which IC50 is on record?
A: 390 nM

Q: With `CCCOc1ccccc1-c1nc(NCc2ccc3c(c2)OCO3)c2ccccc2n1` [Example 84, 2-(2-Propoxyphenyl)-4-(3,4-methylenedioxybenzyl)aminoquinazoline] as the molecule, how does the IC50 read?
A: 220 nM
